These results are taken from patent US8481732B2 (Incyte Corporation, priority 2009, dated 2013).

By IC50 is commonly meant the point on the concentration scale where inhibition reaches its midpoint.

T1 sequence (Q9H3N8 whole entry): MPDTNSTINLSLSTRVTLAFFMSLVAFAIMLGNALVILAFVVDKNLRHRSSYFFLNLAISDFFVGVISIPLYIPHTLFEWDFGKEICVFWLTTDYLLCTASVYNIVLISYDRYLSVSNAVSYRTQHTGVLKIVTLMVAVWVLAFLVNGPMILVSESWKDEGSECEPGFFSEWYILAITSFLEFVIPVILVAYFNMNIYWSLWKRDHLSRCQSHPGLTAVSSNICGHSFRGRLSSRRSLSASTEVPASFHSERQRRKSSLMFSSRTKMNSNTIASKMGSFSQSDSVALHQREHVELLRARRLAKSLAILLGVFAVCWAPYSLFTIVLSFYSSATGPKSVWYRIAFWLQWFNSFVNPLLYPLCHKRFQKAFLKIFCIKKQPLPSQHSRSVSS

This experiment has as its target T1, histamine H4 receptor (Homo sapiens, UniProt Q9H3N8).
T1 construct: expressed in transfected cells; host or cells: HEK293SFM cells (membrane preparation)
In words: H4 Membrane Binding Assay (3H-Histamine displacement). As to conditions: membranes of recombinant HEK293SFM cells, 10 nM 3H-Histamine, 1.5 hr at room temperature. The procedure, abridged: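 Membranes from HEK293SFM cells expressing human H4 (also human H1–H3, mouse H4), prepared in ice-cold 50 mM Tris-HCl pH 7.5. [3H]-histamine displacement, nonspecific binding defined with 1000× unlabeled ligand. Bound radioactivity separated on PEI-treated GF/B filters and measured by liquid scintillation counting.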
On to `CN1CCN(c2cc(-c3ccc4c(c3)CN(C(=O)Cc3ccc(C#N)cc3)CC4)nc(N)n2)CC1` [Example 107, 4-{2-[7-[2-Amino-6-(4-methylpiperazin-1-yl)pyrimidin-4-yl]-3,4-dihydroisoquinolin-2(1H)-yl]-2-oxoethyl}benzonitrile], for which the IC50 came out at 34 nM.

As for `COc1cccc(COc2ccc3c(c2)C(NC(=O)c2ccc4c(N5CCN(C)CC5)nc(N)nc4c2)CCC3)c1` (stereo not drawn) [Example 203, 2-Amino-N-(7-(3-methoxybenzyloxy)-1,2,3,4-tetrahydronaphthalen-1-yl)-4-(4-methylpiperazin-1-yl)quinazoline-7-carboxamide], the half-inhibitory concentration (IC50) amounted to 17 nM. In the case of `Cc1ccc([C@H](C)NC(=O)c2ccc3c(N4CCN(C)CC4)nc(N)nc3c2)cc1` [Example 32, 2-Amino-N-[(1S)-1-(4-methylphenyl)ethyl]-4-(4-methylpiperazin-1-yl)quinazoline-7-carboxamide] it was 334 nM; in that of `CN1CCN(c2cc(-c3ccc4c(c3)CN(C(=O)NC35CC6CC(CC(C6)C3)C5)CC4)nc(N)n2)CC1` [Example 59, N-1-Adamantyl-7-[2-amino-6-(4-methylpiperazin-1-yl)pyrimidin-4-yl]-3,4-dihydroisoquinoline-2(1H)-carboxamide], 19 nM. Regarding `CN1CCN(c2nc(N)nc3cc(C(=O)NCC(=O)OCc4ccccc4)ccc23)CC1` [Example 132, Benzyl({[2-amino-4-(4-methylpiperazin-1-yl)quinazolin-7yl]carbonyl}amino)acetate], the concentration for half-maximal inhibition (IC50) turned out to be 139 nM.

`CN1CCN(c2cc(-c3ccc4c(c3)CN(C(=O)Nc3ccc(C#N)nc3)CC4)nc(N)n2)CC1` [Example 44, 7-[2-Amino-6-(4-methylpiperazin-1-yl)pyrimidin-4-yl]-N-(6-cyanopyridin-3-yl)-3,4-dihydroisoquinoline-2(1H)-carboxamide]: the IC50 was 118 nM. Consider `CN1CCN(c2cc(-c3ccc4c(c3)CN(C(=O)Nc3nc(C(F)(F)F)cs3)CC4)nc(N)n2)CC1` [Example 50, 7-[2-Amino-6-(4-methylpiperazin-1-yl)pyrimidin-4-yl]-N-[4-(trifluoromethyl)-1,3-thiazol-2-yl]-3,4-dihydroisoquinoline-2(1H)-carboxamide], for which the IC50 is 58 nM. In the case of `Cc1ccnc(Oc2cccc(CNC(=O)c3ccc4c(N5CCN(C)CC5)nc(N)nc4c3)c2)c1` [Example 182, 2-Amino-4-(4-methylpiperazin-1-yl)-N-{3-[(4-methylpyridin-2-yl)oxy]benzyl}quinazoline-7-carboxamide] it was 56 nM; in that of `CN1CCN(c2nc(N)nc3cc(C(=O)NCCc4ccccc4)ccc23)CC1` [Example 37, 2-Amino-4-(4-methylpiperazin-1-yl)-N-(2-phenylethyl)quinazoline-7-carboxamide], 129 nM; in that of `CN1CCN(c2cc(-c3ccc4c(c3)CN(C(=O)NC(Cc3ccccc3)C(=O)N(C)C)CC4)nc(N)n2)CC1` (stereo in doubt) [Example 60, 7-[2-Amino-6-(4-methylpiperazin-1-yl)pyrimidin-4-yl]-N-[(1R)-1-benzyl-2-(dimethylamino)-2-oxoethyl]-3,4-dihydroisoquinoline-2(1H)-carboxamide], 497 nM.

As to `CN1CCN(c2nc(N)nc3cc(C(=O)N[C@@H](Cc4ccc(-c5cccs5)cc4)C(=O)N(C)C)ccc23)CC1` [Example 148, 2-Amino-N-{(1S)-2-(dimethylamino)-2-oxo-1-[4-(2-thienyl)benzyl]ethyl}-4-(4-methylpiperazin-1-yl)quinazoline-7-carboxamide], the half-inhibitory concentration (IC50) came out at 18 nM. The result for `CN1CCN(c2cc(-c3ccc4c(c3)CN(C(=O)Cn3cccn3)CC4)nc(N)n2)CC1` [Example 112, 4-(4-Methylpiperazin-1-yl)-6-[2-(1H-pyrazol-1-ylacetyl)-1,2,3,4-tetrahydroisoquinolin-7-yl]pyrimidin-2-amine] reads 337 nM.
